Assay results as given in patent US6455286B1, “Psoralens for pathogen inactivation” (Cerus Corporation, priority 1997, dated 2002).
“Also recorded” adds a separate entry of the source.

Legend:
R17 = R17 bacteriophage screen (photoinactivation, plaque assay on Hfr 3000 bacteria); type: cell-based; conditions: for Average log Inactivation, 4 μM: compound at 4 μM; for Average log Inactivation, 4 μM / Average log Inactivation, 32 μM: 15% FBS in DMEM, UVA 1 J/cm^2, average of 1-4 replicates; for Average log Inactivation, 32 μM: compound at 32 μM
Text: A discussion of inactivation of pathogens other than the R17 model discussed below can be found in U.S. Pat. No. 5,593,823. This reference enables the selection criteria for use in pathogen inactivation of blood products for the compounds of the present invention. The screening technique used to evaluate the compounds of the present invention is to perform a bacteriophage screen; an assay which determines nucleic acid binding of test compounds. A screen of this type, an R17 screen, is described in detail in EXAMPLE 13, below.
The R17 bacteriophage screen is believed to be predictive of HIV inactivation efficiency, as well as the efficiency of compounds against many other viruses. It is a small, single stranded RNA phage. […] Further, single stranded RNA pathogens are more difficult to inactivate because psoralens can neither intercalate between base pairs, as with double-stranded nucleic acids, nor form diadducts which function as interstrand crosslinks. Thus it is expected that when inactivation of R17 is achieved, these same conditions will cause the inactivation of many viruses and bacteria.
The R17 was grown up in Hfr 3000 bacteria, approximate titer 5×10^11. (R17 and Hfr 3000 were obtained from American Tissue Culture Collection (ATCC), Washington, D.C.) The R17 phage stock was added to a solution of 15% fetal bovine serum in DMEM to a final phage concentration of 10^8/mL. An aliquot (0.5 mL) was transferred to a 1.5 mL snap-top polyethylene tube. An aliquot (0.004-0.040 mL) of the test compound stock solution prepared in water, ethanol or dimethylsulfoxide at 0.5 mM was added to the tube. Compounds were tested at concentrations between 4 μM and 32 μM. (AMT is commercially available from HRI, Inc., Concord, Calif.; 8-MOP is commercially available from Sigma, St. Louis, Mo.). The tubes were placed in a light device similar to that described in U.S. Pat. No. 5,593,823 (Baxter Ultraviolet Irradiation System, modified #4R4440) and irradiated at a dose setting of 1 J/cm^2. Sterile 13 mL dilution tubes were prepared; each test compound required one tube with 0.4 mL of LB broth and five tubes containing 0.5 mL of LB broth. To make the dilutions, a 0.100 mL aliquot of the irradiated solution of phage and test compound was added to the first dilution tube of 0.4 mL of media then 0.020 mL of this solution was added to the second tube of 0.5 mL medium (1:25). The second solution was then diluted serially (1:25) into the remaining tubes. To each diluted sample was added 0.050 mL of Hfr 3000 bacteria cultured overnight and 3 mL of molten LB top agar and the mixed materials were poured onto LB broth plates. After the top agar hardened, the plates were incubated at 37° C. overnight. The plaque forming units were then counted the following morning and the titer of the phage remaining after phototreatment was calculated based on the dilution factors.
The following controls were run: the “phage only” in which phage was not treated with test compound and not irradiated (listed as “starting titer” in the tables below); and the “dark” control in which the phage/test compound solution was not irradiated before it was diluted and plated. A “UV only” control in which the phage was illuminated without treatment with test compound was not run with these experiments.

cell-free HIV (HIV-1) = assay: Inactivation of cell-free HIV, residual infectivity by MT-2 microtiter plaque assay; type: cell-based; conditions: compound at 32 μM; 1 minute irradiation 320-400 nm (20 mW/cm^2); DMEM/15% FBS
Description: Pathogen inactivation efficiency of three compounds tested in the previous example were evaluated by examining the ability of the compounds to inactivate cell-free virus (HIV). Inactivation of cell-free HIV was performed as follows.
Small aliquots of the compounds were added to stock HIV-1 to a compound concentration of 32 μM in a total of 0.5 mL. The stock HIV (10^5-10^7 plaque forming units/mL) was in DMEM/15% FBS. The 0.5 mL test aliquots were placed in 24 well polystyrene tissue culture plates and irradiated with 320-400 nm (20 mW/cm^2) for 1 minute on a device similar to the device of EXAMPLE 13. Controls included HIV-1 stock only, HIV-1 plus UVA only, and HIV-1 plus the highest concentration of each psoralen tested, with no UVA. Post irradiation, all samples were stored frozen at −70° C. until assayed for infectivity by a microtiter plaque assay. Aliquots for measurement of residual HIV infectivity in the samples were withdrawn and cultured.
Residual HIV infectivity was assayed using an MT-2 infectivity assay. (Previously described in Hanson, C. V., Crowford-Miksza, L. and Sheppard, H. W., J. Clin. Micro 28:2030 (1990)). The assay medium was 85% DMEM (with a high glucose concentration) containing 100 μg of streptomycin, 100 U of penicillin, 50 μg of gentamicin, and 1 μg of amphotericin B per mL, 15% FBS and 2 μg of Polybrene (Sigma Chemical Co., St. Louis, Mo.) per mL. Test and control samples from the inactivation procedure were diluted in a mixture of 50% assay medium and 50% normal human serum. The samples were serially diluted directly in 96-well plates (Corning Glass Works, corning, N.Y.). The plates were mixed on an oscillatory shaker for 30 seconds and incubated at 37° C. in a 5% CO2 atmosphere for 1 to 18 hours. […] After 24 to 48 hours, the orange fluorescence-stained microplaques were visualized by placing the plates on an 8,000 μW/cm^2 304 nm UV light box (Fotodyne, Inc., New Berlin, Wis.). The plaques were counted at a magnification of ×20 to ×25 through a stereomicroscope.

[1] = Ames assay / bacterial assays, absence of light; cited from earlier work
DNA = conditions: cited from earlier work

Cc1oc2cc3oc(=O)ccc3c(COCCN)c2c1C [Compound 39, 5-(4-amino-2-oxa)butyl-4′,5′-dimethylpsoralen]
Average log Inactivation, 4 μM (R17): 1.6 log | Average log Inactivation, 32 μM (R17): >6.6 log

Cc1oc2c(C)c3oc(=O)cc(CN)c3cc2c1C [Compound 36, 4-aminomethyl-4′,5′,8-trimethylpsoralen]
Average log Inactivation, 4 μM (R17): 0.1 log | Average log Inactivation, 32 μM (R17): 1.1 log

Cc1coc2c(C)c3oc(=O)c(CN)c(C)c3cc12.Cl [Compound 31, 3-aminomethyl-4,4′,8-trimethylpsoralen hydrochloride]
Average log Inactivation, 4 μM (R17): 3.1 log | Log Kill of cell-free HIV (cell-free HIV (HIV-1)): 1.9 log

Cc1cc2cc3c(C)c(CCN)c(=O)oc3c(C)c2o1 [Compound 35, 3-amino ethyl-4,5′,8-trimethylpsoralen]
Average log Inactivation, 4 μM (R17): 1.6 log

Cc1oc2c(CN)c3oc(=O)cc(C)c3cc2c1C [Compound 32, 8-aminomethyl-4,4′,5′-trimethylpsoralen]
Average log Inactivation, 4 μM (R17): 1.1 log | Log Kill of cell-free HIV (cell-free HIV (HIV-1)): 1.1 log

Cc1coc2cc3oc(=O)cc(CN)c3cc12 [Compound 42, 4-aminomethyl-4′-methylpsoralen]
Average log Inactivation, 4 μM (R17): 0 log | Average log Inactivation, 32 μM (R17): 1.2 log

Cc1coc2cc3oc(=O)c(CN)cc3cc12 [Compound 41, 3-aminomethyl-4′-methylpsoralen]
Average log Inactivation, 4 μM (R17): 0 log | Average log Inactivation, 32 μM (R17): 0.6 log

Cc1cc2cc3c(C)c(COCCN)c(=O)oc3c(C)c2o1 [3-(4-amino-2-oxa)butyl-4,5′,8-trimethylpsoralen]
Effectiveness of R17 inactivation relative to AMT (R17; similar inactivation at less than half the AMT concentration, data not shown): at least twice as effective as AMT

Cc1oc2c(C)c3oc(=O)cc(C)c3cc2c1CN [AMT, 4′-aminomethyl-4,5′,8-trimethylpsoralen, reference compound]
Average log Inactivation, 4 μM (R17): 1.6 log | Average log Inactivation, 32 μM (R17): >6.5 log | Mutagenicity [1]: highly mutagenic; also recorded: significant levels of mutagenicity

Cc1coc2c(C)c3oc(=O)c(COCCN)c(C)c3cc12 [Compound 37, 3-(4-amino-2-oxa)butyl-4,4′,8-trimethylpsoralen]
Average log Inactivation, 4 μM (R17): 4.3 log | Average log Inactivation, 32 μM (R17): >6.5 log

COc1c2occc2cc2ccc(=O)oc12 [Compound 8-MOP, 8-methoxypsoralen]
Photoactivated binding to nucleic acids (DNA): relatively low | Mutagenicity [1]: low mutagenicity

Cc1oc2c(C)c3oc(=O)cc(COCCN)c3cc2c1C [Compound 38, 4-(4-Amino-2-oxa)butyl-4′,5′,8-trimethylpsoralen]
Average log Inactivation, 4 μM (R17): 2.2 log | Average log Inactivation, 32 μM (R17): ≧4.0 log

Cc1oc2c(C)c3oc(=O)c(CN)c(C)c3cc2c1C [Compound 34, 3-aminomethyl-4,4′,5′,8-tetramethylpsoralen]
Average log Inactivation, 4 μM (R17): 1.4 log | Log Kill of cell-free HIV (cell-free HIV (HIV-1)): 3.5 log

Cc1cc2cc3c(C)cc(=O)oc3c(CN)c2o1.Cl [Compound 33, 8-aminomethyl-4,5′-dimethylpsoralen hydrochloride]
Average log Inactivation, 4 μM (R17): 0.4 log | Average log Inactivation, 32 μM (R17): 1.7 log

Cc1oc2c(COCCN)c3oc(=O)cc(C)c3cc2c1C [Compound 40, 8-(4-amino-2-oxa)butyl-4,4′,5′-trimethylpsoralen]
Average log Inactivation, 4 μM (R17): 2.1 log | Average log Inactivation, 32 μM (R17): >6.3 log
